ChEMBL document CHEMBL4334438, “Discovery of novel glycogen synthase kinase-3α inhibitors: Structure-based virtual screening, preliminary SAR and biological evaluation for treatment of acute myeloid leukemia” (Eur J Med Chem, 2019)

Assays:
[1] = target: Muscle, skeletal receptor tyrosine-protein kinase (Homo sapiens) (UniProt O15146); experiment: Inhibition of recombinant human MUSK (530 to end residues) assessed as residual activity at 1 uM using myelin basic protein as substrate measured after 40 mins in presence of [gamma33P]ATP by scintillation counting method relative to control
Chain of Muscle, skeletal receptor tyrosine-protein kinase (Homo sapiens) (O15146 whole entry): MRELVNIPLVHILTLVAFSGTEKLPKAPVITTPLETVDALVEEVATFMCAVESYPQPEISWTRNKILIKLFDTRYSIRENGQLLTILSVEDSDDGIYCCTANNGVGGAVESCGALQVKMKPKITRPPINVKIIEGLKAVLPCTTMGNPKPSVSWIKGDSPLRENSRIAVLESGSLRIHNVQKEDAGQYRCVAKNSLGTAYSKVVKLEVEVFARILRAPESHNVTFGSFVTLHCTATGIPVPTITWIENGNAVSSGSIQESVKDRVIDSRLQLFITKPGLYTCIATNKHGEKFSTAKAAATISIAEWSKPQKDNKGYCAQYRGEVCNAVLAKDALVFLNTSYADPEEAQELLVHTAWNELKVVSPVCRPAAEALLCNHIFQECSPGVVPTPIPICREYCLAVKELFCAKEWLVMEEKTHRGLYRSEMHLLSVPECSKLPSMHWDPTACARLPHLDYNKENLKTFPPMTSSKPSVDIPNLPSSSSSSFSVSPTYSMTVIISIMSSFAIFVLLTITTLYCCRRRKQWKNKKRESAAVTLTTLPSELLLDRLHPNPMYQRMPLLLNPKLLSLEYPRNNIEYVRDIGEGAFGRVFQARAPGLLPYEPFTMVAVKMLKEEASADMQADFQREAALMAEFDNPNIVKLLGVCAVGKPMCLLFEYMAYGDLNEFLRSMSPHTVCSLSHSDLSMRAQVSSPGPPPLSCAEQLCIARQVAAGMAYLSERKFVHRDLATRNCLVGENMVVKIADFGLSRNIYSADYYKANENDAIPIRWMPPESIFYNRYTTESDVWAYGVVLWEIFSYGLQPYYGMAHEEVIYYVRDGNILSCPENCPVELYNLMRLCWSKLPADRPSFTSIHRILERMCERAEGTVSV

[2] = target: Eukaryotic translation initiation factor 2-alpha kinase 1 (Homo sapiens) (UniProt Q9BQI3); experiment: Inhibition of human HRI (140 to end residues) assessed as residual activity at 1 uM using RSRSRSRSRSRSRSR as substrate after 120 mins by [gamma-33ATP] radiometric assay relative to control
[3] = tested on: Proto-oncogene tyrosine-protein kinase receptor Ret (Homo sapiens), P07949 [V804L]; experiment: Inhibition of recombinant human Ret V804L mutant (658 to end residues) assessed as residual activity at 1 uM using KKKSPGEYVNIEFG as substrate measured after 40 mins in presence of [gamma33P]ATP by scintillation counting method relative to control
Chain of Proto-oncogene tyrosine-protein kinase receptor Ret (Homo sapiens), P07949 [V804L] (P07949 whole entry V804L): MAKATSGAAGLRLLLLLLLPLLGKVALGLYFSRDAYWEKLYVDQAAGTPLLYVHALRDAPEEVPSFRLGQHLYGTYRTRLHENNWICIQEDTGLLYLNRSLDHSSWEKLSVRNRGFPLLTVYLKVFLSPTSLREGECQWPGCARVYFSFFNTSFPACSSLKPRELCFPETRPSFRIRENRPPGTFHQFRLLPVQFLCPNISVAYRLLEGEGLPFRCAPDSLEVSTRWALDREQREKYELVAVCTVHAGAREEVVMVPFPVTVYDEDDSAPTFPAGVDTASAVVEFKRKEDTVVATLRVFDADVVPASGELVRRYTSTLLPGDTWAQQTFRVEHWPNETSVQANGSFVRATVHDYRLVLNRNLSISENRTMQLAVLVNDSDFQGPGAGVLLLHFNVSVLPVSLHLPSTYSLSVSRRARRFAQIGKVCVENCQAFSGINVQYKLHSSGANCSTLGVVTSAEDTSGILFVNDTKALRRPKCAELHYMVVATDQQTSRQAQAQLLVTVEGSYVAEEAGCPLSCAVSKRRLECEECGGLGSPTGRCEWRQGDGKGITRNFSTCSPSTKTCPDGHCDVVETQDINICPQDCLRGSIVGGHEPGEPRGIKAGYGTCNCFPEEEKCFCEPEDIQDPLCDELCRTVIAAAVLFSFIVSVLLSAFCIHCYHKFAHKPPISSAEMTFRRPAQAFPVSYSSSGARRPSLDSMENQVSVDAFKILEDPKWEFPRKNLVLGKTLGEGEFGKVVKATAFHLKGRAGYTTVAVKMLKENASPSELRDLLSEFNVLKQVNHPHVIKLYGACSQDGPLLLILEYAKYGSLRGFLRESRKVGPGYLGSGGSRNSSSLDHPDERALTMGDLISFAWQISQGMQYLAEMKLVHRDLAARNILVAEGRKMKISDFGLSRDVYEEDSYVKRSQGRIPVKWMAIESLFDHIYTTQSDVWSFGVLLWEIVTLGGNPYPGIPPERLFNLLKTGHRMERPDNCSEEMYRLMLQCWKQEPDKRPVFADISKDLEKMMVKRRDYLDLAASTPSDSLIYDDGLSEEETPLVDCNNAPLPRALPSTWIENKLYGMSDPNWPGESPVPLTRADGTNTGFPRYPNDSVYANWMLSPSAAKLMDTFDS

[4] = target: CDC7/Cyclin B1 (Homo sapiens) (UniProt P14635+O00311); experiment: Inhibition of recombinant full length human CDC7/CyclinB1 assessed as residual activity at 1 uM using Histone H1 as substrate incubated for 120 mins in presence of [gamma-33ATP] by scintillation counting based radiometry assay relative to control; type: protein-complex assay
[5] = target: Ephrin type-A receptor 2 (Homo sapiens) (UniProt P29317); experiment: Inhibition of recombinant human EphA2 (596 to 900 residues) assessed as residual activity at 1 uM using poly(Glu, Tyr) 4:1 as substrate at 40 mins in presence of [gamma-33ATP] by scintillation counting based radiometry assay relative to control
[6] = target: Serine/threonine-protein kinase 33 (Homo sapiens) (UniProt Q9BYT3); experiment: Inhibition of recombinant full-length human STK33 at 1 uM assessed as residual activity at 1 uM using myelin basic protein as substrate measured after 40 mins in presence of [gamma33P]ATP by scintillation counting method relative to control
Chain of Serine/threonine-protein kinase 33 (Homo sapiens) (Q9BYT3 whole entry, looked up, the tested form may be a part): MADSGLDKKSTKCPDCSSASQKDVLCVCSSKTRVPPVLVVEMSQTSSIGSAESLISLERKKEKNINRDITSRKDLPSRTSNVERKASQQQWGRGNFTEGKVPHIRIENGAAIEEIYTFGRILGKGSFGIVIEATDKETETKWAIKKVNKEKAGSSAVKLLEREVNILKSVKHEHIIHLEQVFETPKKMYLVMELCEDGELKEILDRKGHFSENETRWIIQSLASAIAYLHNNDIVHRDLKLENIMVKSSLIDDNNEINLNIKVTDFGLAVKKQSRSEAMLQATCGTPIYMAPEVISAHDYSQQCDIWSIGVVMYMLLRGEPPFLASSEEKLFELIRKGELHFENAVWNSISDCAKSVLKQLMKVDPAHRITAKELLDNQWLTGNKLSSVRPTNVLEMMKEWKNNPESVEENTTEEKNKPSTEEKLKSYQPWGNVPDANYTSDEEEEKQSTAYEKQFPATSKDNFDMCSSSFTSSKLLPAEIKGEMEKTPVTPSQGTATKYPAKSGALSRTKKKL

[7] = target: Mitogen-activated protein kinase kinase kinase 7 (Homo sapiens) (UniProt O43318); experiment: Inhibition of human TAK1 (1 to 303 residues) assessed as residual activity at 1 uM using casein as substrate measured after 40 mins in presence of [gamma33P]ATP by scintillation counting method relative to control
[8] = target: Mitogen-activated protein kinase kinase kinase kinase 4 (Homo sapiens) (UniProt O95819); experiment: Inhibition of recombinant human MAP4K4 (1 to 328 residues) assessed as residual activity at 1 uM using RLGRDKYKTLRQIRQ as substrate incubated for 40 mins in presence of [gamma-33ATP by scintillation counting based radiometry assay relative to control
[9] = target: Serine/threonine-protein kinase Nek1 (Homo sapiens) (UniProt Q96PY6); experiment: Inhibition of recombinant human NEK1 (1 to 505 residues) assessed as residual activity at 1 uM using RLGRDKYKTLRQI as substrate measured after 40 mins in presence of [gamma33P]ATP by scintillation counting based radiometry assay relative to control
[10] = tested on: PI3-kinase p110-alpha/p85-alpha (Homo sapiens), P27986+P42336 [E545K]; experiment: Inhibition of recombinant full-length human PI3K p110alpha E545K mutant/p85alpha assessed as residual activity at 1 uM assessed as residual activity at 1 uM using phosphatidylinositol-4, 5-bisphosphate as substrate incubated for 40 mins in presence of [gamma33P]ATP by scintillation counting based radiometry assay relative to control; type: protein-complex assay
[11] = target: Misshapen-like kinase 1 (Homo sapiens) (UniProt Q8N4C8); experiment: Inhibition of recombinant human MINK (1 to 310 residues) assessed as residual activity at 1 uM using myelin basic protein as substrate measured after 40 mins in presence of [gamma33P]ATP by scintillation counting method
[12] = target: Serine/threonine-protein kinase tousled-like 2 (Homo sapiens) (UniProt Q86UE8); experiment: Inhibition of human TLK2 (387 to end residues) assessed as residual activity at 1 uM using casein as substrate measured after 40 mins in presence of [gamma33P]ATP by scintillation counting method relative to control
Chain of Serine/threonine-protein kinase tousled-like 2 (Homo sapiens) (Q86UE8 whole entry, looked up): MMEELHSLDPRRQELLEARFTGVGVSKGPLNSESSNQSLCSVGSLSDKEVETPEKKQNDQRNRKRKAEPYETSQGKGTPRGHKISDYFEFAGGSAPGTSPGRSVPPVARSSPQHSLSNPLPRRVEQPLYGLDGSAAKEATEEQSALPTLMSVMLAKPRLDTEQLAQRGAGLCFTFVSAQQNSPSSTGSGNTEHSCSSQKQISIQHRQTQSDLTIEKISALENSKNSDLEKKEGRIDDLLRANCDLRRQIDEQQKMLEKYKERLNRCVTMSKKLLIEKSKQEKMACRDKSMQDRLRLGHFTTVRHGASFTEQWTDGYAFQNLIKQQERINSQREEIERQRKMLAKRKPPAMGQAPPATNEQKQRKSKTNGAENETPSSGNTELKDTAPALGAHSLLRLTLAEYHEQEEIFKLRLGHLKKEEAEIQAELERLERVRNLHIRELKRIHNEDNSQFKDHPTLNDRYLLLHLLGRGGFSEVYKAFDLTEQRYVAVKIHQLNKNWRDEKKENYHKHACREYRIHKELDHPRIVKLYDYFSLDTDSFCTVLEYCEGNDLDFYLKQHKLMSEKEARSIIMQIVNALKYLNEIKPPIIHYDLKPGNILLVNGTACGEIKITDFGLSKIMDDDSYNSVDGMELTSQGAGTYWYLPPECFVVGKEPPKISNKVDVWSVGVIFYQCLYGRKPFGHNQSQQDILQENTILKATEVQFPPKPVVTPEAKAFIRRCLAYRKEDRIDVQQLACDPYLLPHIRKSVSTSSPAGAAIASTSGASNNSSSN

Homo sapiens = organism: Homo sapiens; experiment: Inhibition of recombinant human FLT4 V1128L/ H1146R double mutant (800 to end residues) assessed as residual activity at 1 uM using GGEEEEYFELVKKKK as substrate at 40 mins in presence of [gamma-33ATP] by scintillation counting based radiometry assay relative to control
GSK-3beta (H350L mutant) = GSK-3beta (H350L mutant) (Homo sapiens, UniProt P49841, H350L); experiment: Inhibition of human GSK-3beta H350L mutant (2 to end residues) assessed as residual activity at 1 uM using phospho GS2 peptide as substrate after 40 mins by [gamma-33ATP] radiometric assay relative to control; conditions: human GSK-3beta H350L mutant enzyme (residues 2 to end), probe phospho GS2 peptide, read-out: Activity
Chain of GSK-3beta (H350L mutant) (P49841 whole entry, looked up, stated change not applied, the tested form may be a part): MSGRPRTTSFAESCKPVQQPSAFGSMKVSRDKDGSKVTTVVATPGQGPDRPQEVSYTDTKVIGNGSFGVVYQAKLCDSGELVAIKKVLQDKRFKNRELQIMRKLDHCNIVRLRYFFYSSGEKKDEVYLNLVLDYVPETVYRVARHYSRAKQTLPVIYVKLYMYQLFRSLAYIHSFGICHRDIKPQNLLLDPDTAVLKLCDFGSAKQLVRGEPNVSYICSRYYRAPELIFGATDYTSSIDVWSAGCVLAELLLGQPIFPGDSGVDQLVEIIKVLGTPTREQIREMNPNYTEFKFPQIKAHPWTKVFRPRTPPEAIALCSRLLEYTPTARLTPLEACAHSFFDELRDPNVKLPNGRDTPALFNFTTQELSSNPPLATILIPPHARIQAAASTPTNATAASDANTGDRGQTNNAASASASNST

[13] = tested on: Angiopoietin-1 receptor (Homo sapiens), Q02763 [Q939H,Q940H,Y897S]; experiment: Inhibition of human Tie2 Q939H/Q940H/Y897S mutant (771 to end residues) assessed as residual activity at 1 uM using EFPIYDFLPAKKK as substrate measured after 40 mins in presence of [gamma33P]ATP by scintillation counting method relative to control
[14] = target: Fibroblast growth factor receptor 1 (Homo sapiens) (UniProt P11362); experiment: Inhibition of recombinant human FGFR1 (456 to 765 residues) assessed as residual activity at 1 uM using KKKSPGEYVNIEF as substrate at 40 mins in presence of [gamma-33ATP] by scintillation counting based radiometry assay relative to control
[15] = target: Calcium/calmodulin-dependent protein kinase type II subunit alpha (Homo sapiens) (UniProt Q9UQM7); experiment: Inhibition of recombinant full length human CaMK2alpha assessed as residual activity at 1 uM using KKLNRTLSFAEPG as substrate incubated for 40 mins in presence of [gamma-33ATP] by scintillation counting based radiometry assay relative to control
Chain of Calcium/calmodulin-dependent protein kinase type II subunit alpha (Homo sapiens) (Q9UQM7 whole entry): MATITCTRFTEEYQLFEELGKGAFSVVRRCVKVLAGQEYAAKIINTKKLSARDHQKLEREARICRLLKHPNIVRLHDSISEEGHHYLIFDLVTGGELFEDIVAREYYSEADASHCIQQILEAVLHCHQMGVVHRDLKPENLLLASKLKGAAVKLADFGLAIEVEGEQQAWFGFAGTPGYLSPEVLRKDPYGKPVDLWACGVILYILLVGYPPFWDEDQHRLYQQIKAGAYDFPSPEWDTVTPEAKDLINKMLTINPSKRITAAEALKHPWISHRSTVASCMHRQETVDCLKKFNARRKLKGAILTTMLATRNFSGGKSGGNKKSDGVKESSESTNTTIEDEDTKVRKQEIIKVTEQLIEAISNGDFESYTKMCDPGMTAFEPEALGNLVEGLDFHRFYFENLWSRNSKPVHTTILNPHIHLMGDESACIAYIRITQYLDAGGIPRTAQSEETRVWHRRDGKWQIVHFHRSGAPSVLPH

[16] = target: Tyrosine-protein kinase ZAP-70 (Homo sapiens) (UniProt P43403); experiment: Inhibition of recombinant full-length human ZAP70 at 1 uM assessed as residual activity at 1 uM using poly(Glu, Tyr) 4:1 as substrate measured after 40 mins in presence of [gamma33P]ATP by scintillation counting method relative to control
[17] = target: Serine/threonine-protein kinase 16 (Homo sapiens) (UniProt O75716); experiment: Inhibition of human STK16 assessed as residual activity at 1 uM by radiometric method relative to control
Chain of Serine/threonine-protein kinase 16 (Homo sapiens) (O75716 whole entry): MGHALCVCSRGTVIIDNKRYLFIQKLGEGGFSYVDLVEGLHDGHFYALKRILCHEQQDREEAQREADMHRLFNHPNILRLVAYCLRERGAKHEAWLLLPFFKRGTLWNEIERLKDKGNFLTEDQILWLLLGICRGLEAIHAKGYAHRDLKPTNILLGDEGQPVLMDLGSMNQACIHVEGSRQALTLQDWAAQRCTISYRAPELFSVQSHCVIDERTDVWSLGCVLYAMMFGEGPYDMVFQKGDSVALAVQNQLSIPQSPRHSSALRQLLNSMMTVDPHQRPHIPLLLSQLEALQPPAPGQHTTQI

[18] = target: Inhibitor of nuclear factor kappa-B kinase subunit beta (Homo sapiens) (UniProt O14920); experiment: Inhibition of full length human IKKbeta assessed as residual activity at 1 uM using peptide as substrate after 40 mins by [gamma-33ATP] radiometric assay relative to control
[19] = target: Ephrin type-B receptor 3 (Homo sapiens) (UniProt P54753); experiment: Inhibition of recombinant human EphB3 (599 to 920 residues) assessed as residual activity at 1 uM using poly(Glu, Tyr) 4:1 as substrate at 40 mins in presence of [gamma-33ATP] by scintillation counting based radiometry assay relative to control

| SMILES | Activity [1] [%] | Activity [2] [%] | Activity [3] [%] | Activity [4] [%] | Activity [5] [%] | Activity [6] [%] | Activity [7] [%] | Activity [8] [%] | Activity [9] [%] | Activity [10] [%] | Activity [11] [%] | Activity [12] [%] | Activity (Homo sapiens) [%] | activity at 40 min, 1 µM (GSK-3beta (H350L mutant)) [%] | Activity [13] [%] | Activity [14] [%] | Activity [15] [%] | Activity [16] [%] | Activity [17] [%] | Activity [18] [%] | other results |
| --- | --- | --- | --- | --- | --- | --- | --- | --- | --- | --- | --- | --- | --- | --- | --- | --- | --- | --- | --- | --- | --- |
| N=C1NC(=O)/C(=C\c2ccc(-c3cccc([N+](=O)[O-])c3)o2)S1 | 114 | 96 | 97 | 82 | 100 | 88 | 92 | 82 | 107 | 100 | 85 | 93 | 116 | 17 | 103 | 99 | 80 | 106 | 95 | 62 | Activity [19]: 106% |
| C=CCOC(=O)c1cc(-c2ccc(/C=C3/NC(=S)NC3=O)o2)ccc1Cl | 96 | 101 | 98 | 93 | 92 | 96 | 100 | 95 | 95 | 92 | 92 | 106 | 82 | 31 | 98 | 113 | 62 | 107 | 90 | 129 | Activity [19]: 104% |
